In the supplement of paper PMC10307832:

Columns and labels:
Test in all cases: relative viability (nuclei count vs DMSO), 5 days (fraction); higher = more cells survive
[1] = compound: COc1cc(N2CCC(N3CCN(C)CC3)CC2)ccc1Nc1ncc(Cl)c(Nc2ccccc2S(=O)(=O)C(C)C)n1 [NVP-TAE684] + Cc1nc(Nc2ncc(C(=O)Nc3c(C)cccc3Cl)s2)cc(N2CCN(CCO)CC2)n1 [Dasatinib] (partner 0.075 µM)
In short: (§1)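 Relative viability is defined as nuclei in treated wells over nuclei in vehicle wells. Duplicate plates were run and medians reported. Lung cancer cell lines in 1536-well plates were dosed by pin tool one day after seeding, with one drug or with a fixed anchor-drug dose plus five library-drug doses (not always all listed) in √10 steps, and nuclei were counted after 5 days.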

[2] = compound: C#Cc1cccc(Nc2ncnc3cc(OC)c(OCCCCCCC(=O)NO)cc23)c1 [CUDC-101] + CC1(C)CCC(c2ccc(Cl)cc2)=C(CN2CCN(c3ccc(C(=O)NS(=O)(=O)c4ccc(N[C@H](CCN5CCOCC5)CSc5ccccc5)c(S(=O)(=O)C(F)(F)F)c4)cc3)CC2)C1 [Navitoclax] (partner 0.5 µM)
In short: as §1

[3] = compound: C1=CC=C2C(=C1)N=C(S2)C(C#N)C3=NC(=NC=C3)NCCC4=CN=CC=C4 + NC(=O)Nc1cc(-c2cccc(F)c2)sc1C(=O)N[C@H]1CCCNC1 [AZD7762] (partner 0.2 µM)
In short: as §1

[4] = compound: COc1cc2/c(=N/c3ccc(Br)cc3F)nc[nH]c2cc1OCC1CCN(C)CC1 [Vandetanib] + Nc1nc2[nH]cc(CCc3ccc(C(=O)N[C@@H](CCC(=O)O)C(=O)O)cc3)c2c(=O)[nH]1 [Pemetrexed] (partner 0.2 µM)
In short: as §1

Cell Line | relative viability ([1]; first compound 0.2 µM) | relative viability ([1]; first compound 0.6325 µM) | relative viability ([1]; first compound 2 µM) | relative viability ([2]; first compound 0.01 µM) | relative viability ([2]; first compound 0.03162 µM) | relative viability ([2]; first compound 0.1 µM) | relative viability ([2]; first compound 0.3162 µM) | relative viability ([2]; first compound 1 µM) | relative viability ([3]; first compound 0.005 µM) | relative viability ([3]; first compound 0.01581 µM) | relative viability ([3]; first compound 0.05 µM) | relative viability ([3]; first compound 0.1581 µM) | relative viability ([3]; first compound 0.5 µM) | relative viability ([4]; first compound 0.02 µM) | relative viability ([4]; first compound 0.06325 µM) | relative viability ([4]; first compound 0.2 µM) | relative viability ([4]; first compound 0.6325 µM) | relative viability ([4]; first compound 2 µM)
NCI-H2347 | 0.501 | 0.307 | 0.293 | 0.88 | 0.797 | 0.751 | 0.937 | 0.783 | 0.782 | 0.815 | 0.716 | 0.839 | 0.729 | 0.433 | 0.393 | 0.443 | 0.443 | 0.427
NCI-H838 | 0.295 | 0.23 | 0.238 | 1.23 | 1.1 | 1.3 | 1.21 | 0.985 | 0.889 | 0.891 | 0.907 | 0.92 | 0.836 | 0.242 | 0.243 | 0.251 | 0.232 | 0.237
H3255 | 0.318 | 0.274 | 0.23 | 0.688 | 0.435 | 0.174 | 0.126 | 0.0597 | 0.993 | 0.876 | 0.912 | 0.916 | 0.829 | 0.566 | 0.482 | 0.49 | 0.444 | 0.357
HCC-78 | 0.298 | 0.24 | 0.306 | 0.76 | 0.706 | 0.846 | 0.684 | 0.391 | 0.619 | 0.593 | 0.739 | 0.697 | 0.576 | 0.88 | 0.889 | 0.893 | 0.873 | 0.901
EMC-BAC-2 | 0.291 | 0.292 | 0.199 | 1.15 | 1.19 | 1.19 | 1.1 | 0.923 | 1.13 | 1.04 | 0.945 | 1.22 | 0.875 | 0.473 | 0.44 | 0.448 | 0.427 | 0.459
NCI-H2170 | 0.588 | 0.477 | 0.368 | 0.628 | 0.636 | 0.648 | 0.599 | 0.313 | 0.861 | 0.995 | 0.861 | 0.968 | 0.744 | 0.278 | 0.249 | 0.265 | 0.262 | 0.268
HCC-827 | 0.262 | 0.241 | 0.124 | 1.1 | 0.66 | 0.271 | 0.184 | 0.167 | 0.201 | 0.176 | 0.225 | 0.235 | 0.19 | 0.245 | 0.241 | 0.263 | 0.173 | 0.171
ChaGo-K-1 | 0.715 | 0.558 | 0.413 | 1.34 | 1.48 | 1.04 | 1.06 | 0.92 | 0.781 | 0.886 | 0.911 | 0.884 | 0.764 | 0.257 | 0.271 | 0.259 | 0.255 | 0.263
LXF-289 | 0.191 | 0.141 | 0.111 | 0.952 | 0.966 | 0.911 | 0.932 | 0.753 | 1.01 | 1.17 | 1.06 | 1.27 | 0.982 | 0.916 | 0.949 | 0.885 | 0.909 | 0.889
HOP-62 | 0.444 | 0.509 | 0.201 | 1.17 | 0.954 | 1.02 | 1.02 | 1.01 | 0.271 | 0.824 | 0.705 | 0.542 | 0.534 | 0.325 | 0.358 | 0.438 | 0.299 | 0.291
LOU-NH91 | 0.544 | 0.453 | 0.231 | 0.773 | 0.505 | 0.473 | 0.466 | 0.251 | 0.687 | 0.758 | 0.734 | 0.798 | 0.724 | 0.413 | 0.381 | 0.391 | 0.442 | 0.431
NCI-H1915 | 0.363 | 0.294 | 0.255 | 0.796 | 0.793 | 0.804 | 0.743 | 0.743 |  | 0.679 | 0.698 | 0.693 | 0.699 | 0.496 | 0.509 | 0.523 | 0.505 | 0.477
NCI-H1395 | 0.408 | 0.387 | 0.317 | 1.26 | 1.13 | 1.46 | 1.75 | 0.991 | 0.392 |  | 0.379 | 0.428 | 0.389 | 0.917 | 0.902 | 0.746 | 0.842 | 0.612
NCI-H1734 | 0.47 | 0.362 | 0.194 | 0.959 | 0.82 | 0.917 | 0.911 | 0.501 | 0.443 | 0.658 | 0.615 | 0.566 | 0.514 | 0.4 | 0.388 | 0.41 | 0.404 | 0.467
NCI-H2405 | 0.226 | 0.178 | 0.154 | 1.12 | 0.842 | 0.953 | 1.17 | 0.665 | 0.705 | 0.66 | 0.832 | 0.829 | 0.48 | 0.987 | 0.982 | 1.01 | 1.08 | 0.836
NCI-H2087 | 0.573 | 0.694 | 0.225 | 0.945 | 1.07 | 1.04 | 0.98 | 0.727 | 1.42 | 1.39 | 1.41 | 1.45 | 1.06 | 0.661 | 0.64 | 0.619 | 0.641 | 0.623
NCI-H1793 | 0.402 | 0.321 | 0.328 | 0.426 | 0.319 | 0.417 | 0.406 | 0.35 |  | 0.391 | 0.58 | 0.513 | 0.306 | 1.02 | 0.779 | 0.772 | 0.711 | 0.744
NCI-H2085 | 0.187 | 0.16 | 0.162 | 1.11 | 1.26 | 1.18 | 1.16 | 1.02 | 0.833 | 0.956 | 1.02 | 1.07 | 0.905 | 1.02 | 0.786 | 0.776 | 0.765 | 0.767
NCI-H3122 | 0.239 | 0.119 | 0.0896 | 0.982 | 0.987 | 1.06 | 1.05 | 1.06 | 0.975 | 1.16 | 0.96 | 1 | 1 | 0.192 | 0.196 | 0.201 | 0.202 | 0.208
NCI-H441 | 0.461 | 0.398 | 0.216 | 0.875 | 0.57 | 0.545 | 0.795 | 0.392 | 1.02 | 1.14 | 1.28 | 1.02 | 0.986 | 0.252 | 0.269 | 0.27 | 0.263 | 0.263
NCI-H596 | 0.629 | 0.397 | 0.286 | 1.06 | 0.825 | 0.942 | 0.938 | 0.866 | 0.985 | 1.31 | 1 | 1.2 | 1.09 | 0.476 | 0.565 | 0.427 | 0.52 | 0.469
PC-3 [JPC-3] | 0.942 | 0.979 | 0.649 | 0.776 | 0.749 | 0.506 | 0.613 | 0.342 | 0.702 |  | 0.822 | 0.997 | 0.654 | 1.21 | 0.937 | 0.824 | 0.65 | 0.374
NCI-H1993 | 0.499 | 0.548 | 0.581 | 0.827 | 0.884 | 0.743 | 0.771 | 0.558 | 0.664 | 0.749 | 1.03 | 1.01 | 0.7 | 0.629 | 0.55 | 0.707 | 0.515 | 0.598
NCI-H1355 | 0.673 | 0.534 | 0.372 | 1.01 | 0.735 | 0.939 | 0.825 | 0.73 | 0.702 | 0.698 | 0.675 | 0.967 | 0.559 | 1.03 | 0.994 | 1.05 | 0.985 | 1.06
NCI-H23 |  | 0.638 | 0.249 | 0.801 | 0.796 | 0.817 | 0.849 | 0.791 |  | 0.239 | 0.254 | 0.175 | 0.249 | 0.605 | 0.655 | 0.634 | 0.631 | 0.666
CAL-12T | 0.227 | 0.111 | 0.0731 | 1.22 | 1.23 | 1.28 | 1.35 | 1.33 | 0.571 | 0.575 | 0.628 | 0.608 | 0.543 | 1.14 | 1.2 | 1.32 | 1.18 | 1.17
NCI-H1755 | 0.333 | 0.276 | 0.0732 | 0.984 | 1.01 | 0.995 | 1.02 | 0.951 | 0.458 | 0.539 | 0.506 | 0.542 | 0.43 | 0.396 | 0.53 | 0.464 | 0.482 | 0.451
NCI-H2126 | 0.568 | 0.39 | 0.375 | 0.889 | 0.86 | 0.852 | 0.815 | 0.649 | 0.969 | 1.06 | 1.04 | 1.07 | 0.974 | 0.658 | 0.632 | 0.715 | 0.669 | 0.651
201T | 0.703 | 0.46 | 0.314 | 1.18 | 1.17 | 1.16 | 1.2 | 1.21 | 0.542 | 0.674 | 0.69 | 0.707 | 0.56 | 0.345 | 0.34 | 0.328 | 0.338 | 0.306
LU99A | 0.475 | 0.392 | 0.179 | 0.857 | 1.07 | 0.728 | 0.642 | 0.159 | 0.444 | 0.469 |  | 0.343 | 0.262 | 0.172 | 0.191 | 0.197 | 0.21 | 0.187
